Experimental data from ChEMBL document CHEMBL5316324, “Discovery, Characterization, and Engineering of LvIC, an α4/4-Conotoxin That Selectively Blocks Rat α6/α3β4 Nicotinic Acetylcholine Receptors” (J Med Chem, 2023).
Peptide text beside a SMILES is read from it.

Key:
[1] = target: Nicotinic acetylcholine receptor alpha6/alpha3/beta4 (Rattus norvegicus) (UniProt P04757+P12392+P43143); test: Potency index, ratio of [T5A,P60]BuIA to test compound for rat alpha6/alpha3beta4 nAChR expressed in Xenopus Oocytes assessed as fold increase in presence of acetylcholine by Voltage-clamp recording; format: cell-based; details: Oocyte
[2] = target: Neuronal acetylcholine receptor; alpha3/beta4 (Rattus norvegicus) (UniProt P04757+P12392); test: Potency index, ratio of [T5A,P60]BuIA to test compound for rat alpha3beta4 nAChR expressed in Xenopus oocytes assessed as fold decrease in presence of acetylcholine by Voltage-clamp recording; format: cell-based; details: Oocyte

CC(C)[C@H](NC(=O)[C@@H]1CCCN1C(=O)[C@H](CC(N)=O)NC(=O)[C@H](C)NC(=O)[C@H](CS)NC(=O)[C@H](CS)NC(=O)[C@@H](N)CCCNC(=N)N)C(=O)N[C@@H](CS)C(=O)N[C@@H](CC(N)=O)C(=O)NCC(=O)N[C@@H](CCCCN)C(=O)N[C@@H](Cc1cnc[nH]1)C(=O)N[C@@H](CS)C(N)=O (H-RCCANPVCNGKHC-NH2)
fold change (FC) [1]: 3
fold change (FC) [2]: 10
